In patent US5750547A, “Certain carbanate anti-cancer agents” (priority 1996, dated 1998):
Like-named read-outs stand apart in the source and are kept apart here.

Experiments:
P388D1 cells = test: In vitro cytotoxicity (MTT), P388D1 cells; format: cell-based; settings: Mus musculus, P388D1, 72 h
Source text: (§1) As suitable cell lines there may be mentioned: human adenocarcinoma cells (CRL-229, LoVo), human ovarian carcinoma cells (CRL-1572), human breast cancer cells (MDA-MB-231), normal mouse breast cells (HC-11), mouse leukaemia cells (CCL-46, P388D1), mouse leukaemia (CCL-219, L1210), CRL-1427, human promonocyte U937 and the like. Most of these cell lines are readily available from the American Type Culture Collection. Cells lines: 0-23, 0-23 clone 2.2, LR-73, LR-73 MDR-3, T47D and T47D (GST), having developed resistance to antineoplastic agents through different mechanisms of resistance were also tested in the same manner.
(§2) All cell lines are cultured by a standard procedure in RPMI-1640®mediumsupplemented with 10% fetal bovine serum and 100 ,pg/mL of penicillin and 100 μg/mL of streptomycin.
(§3) In order to evaluate the efficiency of the compounds of formula I, the following experiments are carried out. Cytotoxicity assays are conducted on LoVo, MDA-MB-231 and P388D1 cells. The choice of these cells has been motivated by the fact that they have been specifically identified as the cause of a large number of cancer in North America in the recent years.
(§4) Tumor cells are obtained from the American Type Culture Collection. The cells are suspended at a concentration of 2.5×10^4 cells/mL in a fresh culture media (RPMI-1640, supplemented with 10% fetal calf serum). The well plates (microtitration, 96 wells) are seeded with 100 μL of the cell suspension and incubated 24 hours at 37° C. in a humid atmosphere containing 5% CO2.100 μL of fresh culture media containing different concentrations of drugs to be tested (1 to 25 μM) are added in 8 wells of each plate, and the cells are further incubated for 3 additional days at 37° C. under the same conditions. Each experiment is conducted in triplicate. Cell survival is determined by MTT method, as taught in J. Immunol Methods, 1986, 89, 271 (Denizot et al.) and Int. J. Immunopharm, 1988. 10, 785 (Page et al). The method mainly consisted of a first removal of the culture media and addition to the plates of 20 μL of a MTT solution (5 mg/mL in PBS pH 7.4). The plates are incubated at 37° C. for 4 hours and then 200 μL of dimethylsuffoxide (DMSO) area added into the wells. The plates are agitated for 15 min at room temperature and the absorbance at 540 nm measured on Titertek MC Multiwell® spectrophotometer.
(§5) The method normally used by the American National Cancer Institute for the comparison of effectiveness between drugs is based upon ID50. The ID50 is the concentration at which half of tumor cell population is killed. A comparison of the antitumor agents of the present invention with chlorambucil, which is presently used commercially, is provided to illustrate the superiority of the former.

LoVo cells = test: In vitro cytotoxicity (MTT), LoVo cells; format: cell-based; settings: Homo sapiens, 72 h
Source text: as §1, §2, §3, §4, §5

MDA-MB-231 cells = test: In vitro cytotoxicity (MTT), MDA-MB-231 cells; format: cell-based, human; settings: Homo sapiens, MDA-MB-231, 72 h
Source text: as §1, §2, §3, §4, §5

[1] = Acute toxicity assay, i.p. in mice (survival); format: in vivo, BDF1 (C57BL/6×DBA/2) mice
Description: Chlorambucil and compound 36 of the present invention were dissolved in DMSO. Each drug solution was mixed with hydrogenated soybean oil in a ratio 1:9 v/v. 100 μL of this mixture was administered i.p. to BDF1 (C57BL/6×DBA/2) mice. For each concentration of drug, varying from 9.25 to 75 mg/kg for chlorambucil or from 9.25 to 296 mg/kg for compound 36, 6 mice were treated. Survival weight and fitness were measured as criteria of toxicity.

[2] = administered orally or intravenously; cited from earlier work
[3] = cited from earlier work
L1210 leukaemia cells = test: Antineoplastic assay, L1210 leukaemia in BDF1 mice; format: in vivo; settings: 10 mg/kg, i.p. daily day 1 to day 9, L1210 in BDF1 mice
Description: L1210 leukaemia cells suspended in RPM1-1640 were washed, centrifuged and re-suspended in phosphate buffer saline (PBS) at a concentration of 5×10^5 cells/mL. 200 μL of the suspension were injected i.p. to BDF1 mice. From day 1 to day 9, mice were treated daily according to the NCI procedure taught in Protocols for screening chemical agents and natural products against animal tumors and other biological systems (3rd edition). Cancer Chem. Rep. Part 3 3 (2): 1-103) with i.p. injections of 10 μL of drug solution in DMSO mixed with 90 μL of hydrogenated soybean oil. Chlorambucil was tested at 1, 5 and 10 mg/kg/day and compounds 36 and 4 at 1, 10 and 50 mg/kg/day. For each concentration, six mice were treated. Control groups were treated i.p. with 100 μL of hydrogenated soybean oil containing 10% (v/v) DMSO.
The antineoplastic activity of a drug on mice bearing cancer tumors is evaluated by a value known in the art as the median survival time (T/C %). This value of T/C % is obtained by dividing the median survival time of treated mice by that of untreated mice, and the quotient is multiplied by 100. When the value of T/C % is lower than 85, the drug is considered toxic. On the other hand, a survival time greater than 125 indicates a significant antineoplastic action of the drug on cancer tumors.

[4] = Table 2, 3 days incubation, MTT, read-out: ID50 (P388 D1)
[5] = Table 2, 3 days incubation, MTT, read-out: ID50 (LoVo)
[6] = Table 2, 3 days incubation, MTT, read-out: ID50 (MDA-MB-231)
[7] = Table 1, 3 days incubation, MTT, read-out: ID50 on tumor cells, P388D1
[8] = Table 1, 3 days incubation, MTT, read-out: ID50 on tumor cells, LoVo
[9] = Table 1, 3 days incubation, MTT, read-out: ID50 on tumor cells, MDA-MB-231

SMILES | IC50 (P388D1 cells; [4]) [µM] | IC50 (LoVo cells; [5]) [µM] | IC50 (MDA-MB-231 cells; [6]) [µM] | also measured
Cc1ccc(OC(=O)NCCCl)cc1C [Compound 50] | 40 | 30 | 40 | –
CCSc1ccc(NC(=O)NCCCl)cc1 [Compound 39] | – | – | 17 | –
O=C(NCCCl)Oc1ccc([N+](=O)[O-])cc1 [Compound 40, 4-nitro phenyl N-(2chloroethyl) carbamate] | 8.2 | 7 | 10 | –
O=C(NCCCl)Oc1cccc(Cl)c1 [Compound 63] | 5 | 7.5 | 8.5 | –
CCCCCCCc1ccc(NC(=O)NCCCl)cc1 [Compound 9] | 18 | 15 | 16 | –
O=C(NCCCl)Nc1ccc2cn[nH]c2c1 [VII, 6-[3-(2-chloroethyl)ureido]indazole] | – | – | – | IC50 (P388D1 cells; [7]): 76 µM; IC50 (LoVo cells; [8]): 31 µM; IC50 (MDA-MB-231 cells; [9]): 29 µM
O=C(O)CCCc1ccc(N(CCCl)CCCl)cc1 [Chlorambucil, reference compound] | – | – | – | IC50 (P388D1 cells; read-out: ID50 (P388 D1)): 6.7 µM; IC50 (LoVo cells; read-out: ID50 (LoVo)): 9 µM; IC50 (MDA-MB-231 cells; read-out: ID50 (MDA-MB-231)): 11 µM; Acute toxicity, survival ([1]; 9.25 mg/kg i.p.): 6/6; Acute toxicity, survival ([1]; 18.5 mg/kg i.p.): 6/6; Acute toxicity, survival ([1]; 37 mg/kg i.p.): 6/6; Acute toxicity, survival ([1]; 75 mg/kg i.p.): 0/6; side effects [2]: nausea, vomiting, alopecia, lymphopenia, leucopenia and bone marrow depression; biological half-life ([3]; approximately): 1-1.5 h; percentage bound to plasma proteins ([3]; plasma proteins): over 90%; median survival time (T/C %) (L1210 leukaemia cells): 160%
CCC(C)c1ccc(NC(=O)NCCCl)cc1 (stereo not drawn) [Compound 5] | 2.4 | 1.6 | 2.2 | –
CCOc1cccc(NC(=O)NCCCl)c1 [Compound 14] | 42 | 35 | 33 | –
CCCCCOc1ccc(NC(=O)NCCCl)cc1 [Compound 15] | 28 | 16 | 22 | –
CCc1cccc(NC(=O)NCCCl)c1 [Compound 2] | 7 | 3.5 | 7.8 | –
Cc1cc(OC(=O)NCCCl)ccc1[N+](=O)[O-] [Compound 47] | 8 | 7.2 | 7.5 | –
O=C(NCCCl)Nc1ccc2c(c1)CCC2 [VI, 5-[3-(2-chloroethyl)ureido]indane] | – | – | – | IC50 (P388D1 cells; [7]): 7 µM; IC50 (LoVo cells; [8]): 5 µM; IC50 (MDA-MB-231 cells; [9]): 7 µM
